From patent publication US11266686B2, “Metal complexes and methods of treatment” (PROCYPRA THERAPEUTICS LLC, priority 2013, dated 2022)

What was measured:
[1] = system: MPTP-lesioned mice; test: Traction wire test in MPTP-lesioned mouse model of PD; format: in vivo; conditions: for average pull-up time as compared to SSV control: 30 mg/kg API oral for 21 days, gluconic acid NCD p=0.07; for Pull-up Time: 30 mg/kg CuATSM API equivalent, oral gavage for 21 days, average
Description: Traction wire test: Mice are moved to behavior room-testing room 1 hr before test administration. Water and food remain accessible to the mice, and a background “white noise” from a radio is used throughout the hour and test period. Each mouse is pick up the mouse by the tail in one hand, and the mouse held by the tail over the wire until it grasps the wire with the front two paws. The tail is then lowered until the mouse is suspended from the wire by its front two paws. The timing is started as soon as the mouse is suspended independently, with no assistance from the test administrator. The time taken for the mouse to grasp the wire with one of the back feet, such that two front paws and one back paw are grasping the wire, is recorded as the “pull-up time”. The test is repeated for each mouse, three times in a row with a 5 minute inter-trial interval between each suspension on the wire. Mice are returned to their shared cages between trials. If a mouse falls it counts as a trial, and the time until the fall is recorded, and the inter-trial time interval is begun. If the mouse has not completed the task and has not fallen within 60 seconds, then the mouse is taken off the wire and the trial time recorded as 60 seconds. A total of 47 mice were administered MPTP. Of these, a total of 14 mice were then treated with SSV negative control. A total of 14 mice were treated with CuATSM in SSV, of which one mouse was eliminated from the wire pull-up study because of an injured paw. […] Trials in which the mouse fell during the trial were not included in the averages. […] In all instances the mice completed the other two trials successfully so that an average time was calculated for the individual mouse and subsequently for the population.

[2] = Kinetic solubility determination (μDISS Profiler, in situ fiber optic UV); conditions: for dissolved CuATSM as share of the total available in the assay: gluconic acid NCD at the 0.3 hour time point
Protocol: Solubility assays were performed in 25 mL glass vials. Glass vials (4-mL, capped, VWR) were used to prepare stock solutions. All experiments were conducted using μDISS Profiler™ operated by μDISS Command Software (version 5.0.1.0). MB-8 mini-water bath with built-in stirring device was used to provide stirring during solubility measurements. Temperature during experiments was maintained at 25±2° C., and were performed in duplicate.
An HCl/KCl based buffer at pH 1.2 and a simulated intestinal fluid at pH 6.8 (no pancreatin) were prepared according USP protocols (Vol 35/NF30). […] The concentration measurements are performed directly in the dissolution media, with processed results plotted in real time using the μDISS Profiler™ (Pion) instrument. The Profiler uses an in situ fiber optic-dip probe UV apparatus, with the probe center-positioned in the vial holding the studied compounds and 10-20 mL of media. Interference due to background turbidity was minimized when needed by a spectral second derivative method (Avdeef, A; Tsinman, O. “Miniaturized Rotating Disk Intrinsic Dissolution Rate Measurement: Effects of Buffer Capacity in Comparisons to Traditional Wood's Apparatus”, Pharm. Res., 2008, DOI: 10.1007/s11095-008-96-79-z).
The 2 and 20 mm path length tips were selected for detecting the concentration of CuATSM at pH 1.2 and pH 6.8 respectively. A dry CuATSM powder was dissolved in DMSO resulting a stock solution at known concentration, and then the solution was used to generate standard curves by serial addition. Standard curves were determined from the area under the second derivative curve in wavelength range 340-366 nm (for pH 1.2) and 445-465 nm (for pH 6.8) so as to avoid over saturation of the UV signal.
The solubility of CuATSM was determined in pH 6.8 buffer. Samples of CuATSM were introduced into pH 6.8 buffer as powders, thus, unlike for standards, the final solutions contained no solvents in the background. The 20 mm (at pH 6.8) path length tip was selected for detecting the concentration of CuATSM in solution. All experiments were performed at room temperature 25±3° C.
The 20 mm pathlength tip was selected for detecting the concentration of the compounds in pH 6.8 buffer solution. All experiments were performed at room temperature, 25±3° C., and were performed in duplicate.
Kinetic solubility determination of CuATSM:saccharin (1:2). CuATSM:saccharin (1:2) was prepared according to the methods of EXAMPLE 3. The kinetic solubility profile of CuATSM:saccharin (1:2) was determined in pH 6.8 buffer similarly to the methods given in EXAMPLE 13 and EXAMPLE 14. Standard curves of CuATSM:saccharin (1:2) and saccharin were generated and compared to the standard curves of CuATSM. Saccharin concentrations in the buffer solution were determined from the saccharin standard curves in the 292-310 nm wavelength region, using the Zero Intercept Method so as to minimize spectral interference from CuATSM. […] The upper concentration limit of the assay was approximately 0.12 mg/mL of CuATSM:saccharin (1:2), resulting in upper concentrations limits for CuATSM and for saccharin in solution approximately 60 μg/mL each. All experiments were performed at about 25±3° C., and were performed in duplicate.

[3] = Cu-63 in brain and plasma of treated MPTP-lesioned mice by ICPMS
Protocol: CuATSM:gluconic acid (1:2) was prepared according to the method of EXAMPLE 7. CuATSM:saccharin (1:2) was prepared according to the methods of EXAMPLE 3. CuATSM was suspended in “Standard Suspension Vehicle” (SSV), consisting of 0.9% (w/v) NaCl, 0.5% (w/v) sodium carboxymethylcellulose, 0.5% (v/v) benzyl alcohol, and 0.4% (v/v) Tween 80 in deionized water. CuATSM:gluconic acid (1:2) and CuATSM:saccharin (1:2) were suspended in sterile water. Samples were prepared by adding one of the compounds to the liquid vehicle (water or SSV) in a vial and then vortexing the mixture for 3 min with a stir bar inside.
MPTP mouse models of PD are described by (Przedborski & Vila, 2003). […] Behavioral testing via the wire test and tissue harvesting followed.
Copper uptake in brain and in plasma was measured by inductively-coupled plasma mass spectrometry (ICPMS) determination of the naturally-occurring copper isotope Cu-63. Brain tissue was obtained from the left hemisphere of the brain.

[4] = pH 6.8 buffer, powder added, 25±3° C., 12-hour monitoring
[5] = MPTP-lesioned mice, 30 mg/kg API oral for 21 days
[6] = MPTP-lesioned mice, 30 mg/kg API oral for 21 days, ICPMS

Row | Structure (SMILES) | average pull-up time as compared to SSV control [1] | Pull-up Time [1] | time to maximum concentration of CuATSM ([2]; pH 6.8 buffer, 25±3° C.) | maximum concentration of CuATSM in solution [2, 4] | dissolved CuATSM as share of the total available in the assay ([2]; pH 6.8 buffer) | Cu-63 concentrations in brain tissue as compared to the SSV control [3, 5] | Cu-63 concentrations in plasma as compared to the SSV control [3, 5] | Cu-63 in brain, Average [3, 6] | Cu-63 in plasma, Average [3, 6] | other results
1 | CNC1=NN=C(C)C(C)=NN=C(NC)[S][Cu][S]1 [CuATSM, Copper(II) diacetyl-di(N4-methyl)thiosemicarbazone, reference compound] | significant (both p<0.01 or less) decrease | 4.22 s |  |  |  |  |  |  |  | concentration of CuATSM at the end of the 12-hour monitoring period ([2]; pH 6.8): remained at that concentration; time to maximum concentration of CuATSM ([2]; pH 6.8): approximately 8 hours; Cu-63 in brain, Average ([3]; mouse, in vivo, po, 30 mg/kg): 18.48 µg/g; Cu-63 in plasma, Average ([3]; mouse, in vivo, po, 30 mg/kg): 5.40 μmol/ltr
2 | CNC1=NN=C(C)C(C)=NN=C(NC)[S][Cu][S]1.O=C(O)C(O)C(O)C(O)C(O)CO.O=C(O)C(O)C(O)C(O)C(O)CO [CuATSM:gluconic acid (1:2)] | decrease in the average pull-up time | 4.62 s | ≤ 0.11 h | approximately 3 μg/mL | less than 1% | significant (all p<0.001) increase | No treatments resulted in significant (all p>0.05) change | 22.20 µg/g | 5.27 μmol/ltr | solubility in DMSO (did not fully dissolve at) ([2]; DMSO stock solution): < 400 µg/mL; time to maximum concentration of CuATSM ([2]; pH 1.2 KCl/HCl buffer): ≤ 0.3 h; maximum concentration of CuATSM in solution ([2]; pH 1.2 KCl/HCl buffer, 3-hour monitoring): approximately 195 μg/mL; dissolved CuATSM as share of the total amount of CuATSM in the sample ([2]; pH 1.2 buffer, within 0.3 hours, kept for 3 hours): 33%; change in the chemical identity of CuATSM after dissolution (UV spectral shifts) ([2]; pH 6.8 buffer, 450 nm shifted to 415 nm within the first 0.3 hours): reaction or decomposition
3 | CNC1=NN=C(C)C(C)=NN=C(NC)[S][Cu][S]1.O=C1NS(=O)(=O)c2ccccc21.O=C1NS(=O)(=O)c2ccccc21 [CuATSM:saccharin (1:2)] | significant (both p<0.01 or less) decrease | 3.11 s | ≤ 0.8 h | approximately 2 μg/mL | less than 1% | significant (all p<0.001) increase | No treatments resulted in significant (all p>0.05) change | 14.66 µg/g | 6.13 μmol/ltr | time to maximum concentration of saccharin ([2]; pH 6.8 buffer): ≤ 0.3 h; concentration of CuATSM at the end of the 12-hour monitoring period ([2]; pH 6.8 buffer, 25±3° C.): approximately 1 μg/mL; maximum concentration of saccharin in solution ([2]; pH 6.8 buffer, unchanged over the 12-hour monitoring period): approximately 60 μg/mL
